# Data: US20180099931A1 (AbbVie S.à.r.l., priority 2016, published 2018)
# Where two headings read alike, the source gives them in different places.
# Target: T1, F508delCFTR (Homo sapiens, UniProt P13569, DEL508-508)
# T1 construct: expressed in transfected cells; host or cells: CFBE41o- human lung-derived epithelial cells (CFBE4lo-F508delCFTR-HRP), doxycycline-inducible
# Experiment: Cell Surface Expression-Horse Radish Peroxidase (CSE-HRP) Assay;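 as to Maximum % activity (with co-corrector): co-corrector and positive control are both the same reference corrector at 2 µM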;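 as to Maximum % activity (without co-corrector): percent of the 2 µM on-plate positive control corrector response above DMSO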
# Type: cell-based
# Settings: for Maximum % activity (with co-corrector) / Emax: maximum at any tested concentration, normalized to on-plate positive control; for Emax: read-out: Maximum % activity (without co-corrector)
# [1] = CSE-HRP, test compound without co-corrector, read-out: EC50 (without co-corrector)
# [2] = CSE-HRP, with co-corrector (2 μM of 3-[(2R,4R)-4-({[1-(2,2-difluoro-1,3-benzodioxol-5-yl)cyclopropyl]carbonyl}amino)-7-methoxy-3,4-dihydro-2H-chromen-2-yl]benzoic acid), read-out: EC50 (with co-corrector)
# [3] = CSE-HRP, with co-corrector (2 μM)
# [4] = test compound without co-corrector, read-out: EC50 (without co-corrector)
# [5] = with co-corrector (2 μM of 3-[(2R,4R)-4-({[1-(2,2-difluoro-1,3-benzodioxol-5-yl)cyclopropyl]carbonyl}amino)-7-methoxy-3,4-dihydro-2H-chromen-2-yl]benzoic acid), read-out: EC50 (with co-corrector)
# [6] = test compound without co-corrector
# [7] = with co-corrector (2 μM of 3-[(2R,4R)-4-({[1-(2,2-difluoro-1,3-benzodioxol-5-yl)cyclopropyl]carbonyl}amino)-7-methoxy-3,4-dihydro-2H-chromen-2-yl]benzoic acid)
# T1 sequence (P13569 with tags, fused parts or gaps DEL508-508): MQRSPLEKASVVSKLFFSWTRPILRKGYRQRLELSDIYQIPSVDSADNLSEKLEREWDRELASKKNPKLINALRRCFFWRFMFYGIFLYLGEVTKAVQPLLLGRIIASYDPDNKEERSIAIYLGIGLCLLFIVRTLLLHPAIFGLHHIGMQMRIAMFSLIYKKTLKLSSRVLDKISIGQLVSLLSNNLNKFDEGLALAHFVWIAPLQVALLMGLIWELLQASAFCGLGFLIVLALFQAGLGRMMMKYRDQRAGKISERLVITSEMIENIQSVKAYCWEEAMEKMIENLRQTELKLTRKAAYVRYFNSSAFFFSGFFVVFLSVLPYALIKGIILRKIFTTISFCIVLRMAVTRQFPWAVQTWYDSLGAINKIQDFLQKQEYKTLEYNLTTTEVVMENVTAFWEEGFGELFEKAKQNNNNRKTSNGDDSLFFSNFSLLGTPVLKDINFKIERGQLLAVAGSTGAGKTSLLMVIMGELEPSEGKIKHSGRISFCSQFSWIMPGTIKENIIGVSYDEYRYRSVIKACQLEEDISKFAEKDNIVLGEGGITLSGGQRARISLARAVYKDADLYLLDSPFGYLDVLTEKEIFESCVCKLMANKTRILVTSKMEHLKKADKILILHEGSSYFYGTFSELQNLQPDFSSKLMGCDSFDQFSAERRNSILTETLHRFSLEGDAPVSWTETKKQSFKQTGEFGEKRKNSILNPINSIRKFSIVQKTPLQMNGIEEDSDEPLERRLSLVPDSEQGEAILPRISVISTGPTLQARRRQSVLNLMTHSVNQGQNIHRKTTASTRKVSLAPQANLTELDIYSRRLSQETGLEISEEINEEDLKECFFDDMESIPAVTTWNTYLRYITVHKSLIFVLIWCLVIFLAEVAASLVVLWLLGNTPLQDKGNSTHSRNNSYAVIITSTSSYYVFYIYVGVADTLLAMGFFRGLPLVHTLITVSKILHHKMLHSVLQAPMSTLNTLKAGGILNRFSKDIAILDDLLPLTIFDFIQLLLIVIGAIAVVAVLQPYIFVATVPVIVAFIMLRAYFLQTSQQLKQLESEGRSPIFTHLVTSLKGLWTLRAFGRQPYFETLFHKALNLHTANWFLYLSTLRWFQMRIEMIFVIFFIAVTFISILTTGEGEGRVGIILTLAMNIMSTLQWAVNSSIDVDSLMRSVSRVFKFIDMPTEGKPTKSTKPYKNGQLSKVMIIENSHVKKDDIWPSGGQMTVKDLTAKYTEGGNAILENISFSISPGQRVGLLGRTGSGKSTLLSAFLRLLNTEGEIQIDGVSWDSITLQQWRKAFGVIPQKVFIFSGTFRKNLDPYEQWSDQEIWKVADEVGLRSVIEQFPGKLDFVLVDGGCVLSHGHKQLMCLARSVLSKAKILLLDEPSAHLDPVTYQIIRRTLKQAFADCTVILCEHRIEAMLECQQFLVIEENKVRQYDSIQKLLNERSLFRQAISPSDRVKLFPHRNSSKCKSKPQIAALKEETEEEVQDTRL
Structure (SMILES),EC50 [1] [nM],EC50 [2] [nM],Maximum % activity (with co-corrector) [3],"Emax (CSE-HRP, without co-corrector) [%]",EC50 [4] [nM],EC50 [5] [nM],Maximum % activity (with co-corrector) (with co-corrector (2 μM)),Emax (without co-corrector) [%],Emax [6] [%],Maximum % activity (with co-corrector) [7]
COc1ncc(C(F)(F)F)cc1N[C@@H]1[C@@H](C(C)(C)OC)[C@H](C(=O)O)N(C(=O)C2CCCCC2)[C@@H]1c1ccccc1 (racemic) [II-89],1000 to 10000,1000 to 10000,++ (≥150 and <350),< 100,,,,,,
COc1ncc(C(F)(F)F)cc1N[C@H]1[C@H](C(C)(C)C)[C@@H](C(=O)O)N(C(=O)C2C3CCCC32)[C@H]1c1cccnc1N(C)C (stereo partly shown) [II-483],,,,,1000 to 10000,1000 to 10000,,,< 100,++ (≥150 and <350)
COc1ncc(C(F)(F)F)cc1CN[C@H]1[C@H](C(C)(C)C)[C@@H](C(=O)O)N(C(=O)[C@@H]2CCCC(F)(F)C2)[C@H]1c1cccnc1OC [II-572],,,,,1000 to 10000,< 1000,,,100 to 200,+++ (≥350)
CC(C)(C)[C@H]1[C@H](NCc2ccc3c(c2)CCO3)[C@H](c2ccccc2)N(C(=O)C2CCCCC2)[C@@H]1C(=O)O [III-122],,,,,> 10000,1000 to 10000,++ (≥150 and <350),,< 100,
CC(C)(C)[C@H]1[C@H](NCc2cc(Cl)ccc2Cl)[C@H](c2ccccc2)N(C(=O)C2CCCCC2)[C@@H]1C(=O)O [II-105],1000 to 10000,1000 to 10000,+++ (≥350),< 100,,,,,,
COc1cc(C(C)(C)C)ccc1CN[C@H]1[C@H](C(C)(C)C)[C@@H](C(=O)O)N(C(=O)OC(C)C)[C@H]1c1ccccc1OC [II-135],1000 to 10000,1000 to 10000,+++ (≥350),100 to 200,,,,,,
CC(C)(C)[C@@H]1[C@@H](NCc2cc(Cl)ncc2O)[C@@H](c2ccccc2)N(C(=O)C2CCCCC2)[C@H]1C(=O)O (racemic) [III-73],,,,,> 10000,1000 to 10000,,,< 100,++ (≥150 and <350)
COc1ccc(C(C)(C)C)cc1CN[C@H]1[C@H](C(C)(C)C)[C@@H](C(=O)O)N(C(=O)c2cnn(-c3ccc(F)cc3)c2C)[C@H]1c1ccccc1 [II-354],,,,,< 1000,< 1000,,,> 200,+++ (≥350)
COc1ccc(C2(C)CCC2)cc1CN[C@H]1[C@H](C(C)(C)C)[C@@H](C(=O)O)N(C(=O)[C@H]2CCCCO2)[C@H]1c1cccnc1N(C)C [II-493],,,,,1000 to 10000,1000 to 10000,,,> 200,+++ (≥350)
CCc1cc2ccc(Cl)cc2nc1N[C@H]1[C@H](C(C)(C)C)[C@@H](C(=O)O)N(C(=O)C2CCCCC2)[C@H]1c1ccccc1 [III-149],,,,,1000 to 10000,1000 to 10000,+++ (≥350),,100 to 200,
CC(C)OC(=O)N1[C@H](C(=O)O)[C@@H](C(C)(C)C)[C@H](NCC(C)(C)c2ccccc2)[C@@H]1c1ccccc1 [Example I-264],1000 to 10000,1000 to 10000,++ (≥150 and <350),< 100,,,,,,
"COc1nc(C(C)(C)C)ccc1CN[C@H]1[C@H](C23CC(C2)C3)[C@@H](C(=O)O)N(C(=O)OC(C)C)[C@H]1c1ccccc1 [Example 70, (2S,3S,4S,5S)-3-(bicyclo[1.1.1]pentan-1-yl)-4-{[(6-tert-butyl-2-methoxypyridin-3-yl)methyl]amino}-5-phenyl-1-{[(propan-2-yl)oxy]carbonyl}pyrrolidine-2-carboxylic acid]",,,,,1000 to 10000,1000 to 10000,+++ (≥350),100 to 200,,
COc1ccc(Cl)cc1CN[C@H]1[C@H](C(C)(C)C)[C@@H](C(=O)O)N(C(=O)OC(C)C)[C@H]1c1ccccc1OC [II-137],1000 to 10000,1000 to 10000,+++ (≥350),100 to 200,,,,,,
CC(C)(C)[C@H]1[C@H](Nc2cc3ccccc3cn2)[C@H](c2ccccc2)N(C(=O)C2CCCCC2)[C@@H]1C(=O)O [III-156],,,,,< 1000,1000 to 10000,++ (≥150 and <350),,< 100,

# Results, then the compound that gave them:
EC50 [1] [nM],EC50 [2] [nM],Maximum % activity (with co-corrector) [3],"Emax (CSE-HRP, without co-corrector) [%]",EC50 [4] [nM],EC50 [5] [nM],Maximum % activity (with co-corrector) (with co-corrector (2 μM)),Emax (without co-corrector) [%],Emax [6] [%],Maximum % activity (with co-corrector) [7],Structure (SMILES)
1000 to 10000,1000 to 10000,+++ (≥350),> 200,,,,,,,COc1ccc(C(C)(C)C)cc1CN[C@H]1[C@H](C(C)(C)C)[C@@H](C(=O)O)N(C(=O)C2CCC(OC)CC2)[C@H]1c1ccccc1 (stereo partly shown) [II-214]
,,,,1000 to 10000,< 1000,+++ (≥350),> 200,,,COc1ccc(C(C)C)cc1CN[C@H]1[C@H](C(C)(C)C)[C@@H](C(=O)O)N(C(=O)C2CCCCC2)[C@H]1c1ccc(F)cc1 [Example I-109]
,,,,< 1000,< 1000,+++ (≥350),> 200,,,COc1ccc(C2CCC2)cc1CN[C@H]1[C@H](C(C)(C)C)[C@@H](C(=O)O)N(C(=O)C2CCCCC2)[C@H]1c1ccccc1 [Example I-68]
1000 to 10000,< 1000,+++ (≥350),> 200,,,,,,,COc1ccc(C(C)C)cc1CN[C@H]1[C@H](C(C)(C)OC)[C@@H](C(=O)O)N(C(=O)C2CCCCC2)[C@H]1c1ccccc1 [II-258]
,,,,1000 to 10000,1000 to 10000,+++ (≥350),> 200,,,COc1ccc(C(F)(F)F)cc1CN[C@H]1[C@H](C(C)(C)C)[C@@H](C(=O)O)N(C(=O)[C@H]2OCC[C@H]2C(C)C)[C@H]1c1ccccc1 (relative stereo) [Example I-106]
,,,,> 10000,> 10000,+ (<150),< 100,,,COc1cc(C(F)(F)F)ccc1CN[C@@H]1[C@@H](C(C)(C)C)[C@H](C(=O)O)N(C(=O)[C@H](C)c2ccccc2)[C@@H]1c1ccccc1 [Example I-45]
,,,,> 10000,1000 to 10000,,,< 100,++ (≥150 and <350),CC(C)(C)[C@@H]1[C@@H](NCc2cc(C(F)(F)F)ccc2OCCOC(F)(F)F)[C@@H](c2ccccc2)N(C(=O)C2CCCCC2)[C@H]1C(=O)O (racemic) [III-86]
,,,,1000 to 10000,1000 to 10000,+++ (≥350),> 200,,,COc1ccc(C(C)(C)C)cc1CN[C@H]1[C@H](C(C)(C)C)[C@@H](C(=O)O)N(C(=O)CN2Cc3ccccc3C2)[C@H]1c1ccccc1 [Example I-91]
,,,,1000 to 10000,1000 to 10000,,,100 to 200,+++ (≥350),COc1ccc(C(F)(F)F)cc1CN[C@H]1[C@H](C(C)(C)C)[C@@H](C(=O)O)N(C(=O)[C@H](C)c2ccccc2)[C@H]1c1cccnc1OC [II-541]
1000 to 10000,1000 to 10000,++ (≥150 and <350),< 100,,,,,,,COc1ccc(C(F)(F)F)cc1CN[C@@H]1[C@@H](C(C)(C)C)[C@H](C(=O)O)N(C(=O)[C@@H](C)Oc2ccccc2)[C@@H]1c1ccccc1 (racemic) [II-66]
1000 to 10000,1000 to 10000,+++ (≥350),> 200,,,,,,,COC(=O)N1CCC[C@H](C(=O)N2[C@H](c3ccccc3)[C@H](Nc3cc(C(F)(F)F)cc(C)n3)[C@@H](C(C)(C)C)[C@@H]2C(=O)O)C1 (racemic) [II-27]
,,,,1000 to 10000,1000 to 10000,,,< 100,+++ (≥350),CC(C)(C)[C@@H]1[C@@H](Nc2cc(C(F)(F)F)ccn2)[C@@H](c2ccccc2)N(C(=O)C2CCCCC2)[C@H]1C(=O)O (racemic) [III-4]
1000 to 10000,1000 to 10000,+++ (≥350),> 200,,,,,,,COc1ccc(C(F)(F)F)cc1CN[C@H]1[C@H](C(C)(C)C)[C@@H](C(=O)O)N(C(=O)[C@H](OC)c2ccccc2)[C@H]1c1ccccc1N(C)C [II-62]
1000 to 10000,< 1000,+++ (≥350),> 200,,,,,,,COc1ccc(C(C)(C)C)cc1CN[C@H]1[C@H](C(C)(C)C)[C@@H](C(=O)O)N(C(=O)C2CCCCC2)[C@H]1c1ccccc1O [Example I-310]
,,,,1000 to 10000,< 1000,+++ (≥350),,100 to 200,,COc1ncc(C2CCC2)cc1CN[C@H]1[C@H](C(C)(C)C)[C@@H](C(=O)O)N(C(=O)C2CCCC(C(F)(F)F)C2)[C@H]1c1ccccc1 (stereo partly shown) [III-209]
1000 to 10000,1000 to 10000,+++ (≥350),100 to 200,,,,,,,COc1cc(C(F)(F)F)ccc1CN[C@H]1[C@H](C(C)(C)C)[C@@H](C(=O)O)N(C(=O)C2OC[C@@H]3CCC[C@H]23)[C@H]1c1ccccc1 (stereo partly shown) [II-241]
1000 to 10000,< 1000,+++ (≥350),100 to 200,,,,,,,COc1ncc(C(F)(F)F)cc1CN[C@H]1[C@H](C(C)(C)C)[C@@H](C(=O)O)N(C(=O)[C@@H]2CCCCO2)[C@H]1c1ccccc1Br [Example I-288]
